Reference: ChEMBL document CHEMBL6103573, “Discovery of novel thienopyridine indole derivatives as inhibitors of tubulin polymerization targeting the colchicine-binding site with potent anticancer activities” (Eur J Med Chem, 2025)
The source made the active and inactive calls. No cut-off for these calls is given here.

Legend:
MGC-803 [1] = assay: Induction of apoptosis in human MGC-803 cells assessed as late apoptotic cells at 1.5 nmol/L incubated for 48 hrs by Annexin V-FITC/propidium iodide staining based flow cytometry analysis (reference value: 2.22 %); assay type: functional
MGC-803 [2] = assay: Induction of apoptosis in human MGC-803 cells assessed as late apoptotic cells at 0.25 nmol/L incubated for 48 hrs by Annexin V-FITC/propidium iodide staining based flow cytometry analysis (reference value: 2.22 %); assay type: functional
[3] = Cytotoxicity against human GES1 cells assessed as inhibition of cell proliferation incubated for 48 hrs by MTT assay; assay type: toxicity, cell-based
HGC-27 [4] = assay: Induction of apoptosis in human HGC-27 cells assessed as downregulation of Bcl-2 expression incubated for 48 hrs by Western blotting analysis; assay type: functional, cell-based; conditions: dose 0.25-2 nmol/L
MGC-803 [5] = assay: Induction of apoptosis in human MGC-803 cells assessed as appearance of bright cells at 0.25 to 2.0 nmol/L incubated for 48 hrs by bright field microscopic analysis; assay type: functional, cell-based; conditions: dose 0.25-2 nmol/L
Tubulin (Homo sapiens) [6] = target: T1, Tubulin (Homo sapiens) (UniProt P68371+Q9H4B7+P0DPH7+P68366+Q13509+Q71U36+P04350+Q3ZCM7+P07437+P68363+Q9BQE3+Q6PEY2+Q13885+Q9BVA1+Q9BUF5); assay: Disruption of microtubule network in human HGC-27 cells assessed as reduction in filamentous microtubule structure formation at 0.25 to 2.0 nmol/L incubated for 24 hrs by DAPI staining based fluorescence microscopic analysis; assay type: cell-based; conditions: dose 0.25-2 nmol/L
MGC-803 [7] = assay: Antiproliferative activity against human MGC-803 cells assessed as reduction in cell viability at 0.25 to 2.0 nmol/L by MTT assay; assay type: functional, cell-based; conditions: dose 0.25-2 nmol/L, time 6-48 hrs
MGC-803 [8] = assay: Induction of apoptosis in human MGC-803 cells assessed as increase in dead to live cells ratio at 0.25 to 2.0 nmol/L incubated for 48 hrs by Calcein-AM/PI staining based analysis; assay type: functional, cell-based; conditions: dose 0.25-2 nmol/L
Tubulin (Homo sapiens) [9] = target: T1, Tubulin (Homo sapiens); assay: Disruption of microtubule network in human HGC-27 cells assessed as irregular cellular morphology at 0.25 to 2.0 nmol/L incubated for 24 hrs by DAPI staining based fluorescence microscopic analysis; assay type: cell-based; conditions: dose 0.25-2 nmol/L
MGC-803 [10] = assay: Anti-migratory activity against human MGC-803 cells assessed as reduction in wound healing area measured after 24 hrs by wound healing assay; assay type: functional, cell-based; conditions: dose 0.5-1 nmol/L
HGC-27 [11] = assay: Antiproliferative activity against human HGC-27 cells assessed as cell viability at 0.5 to 2 nmol/L incubated for 48 hrs by MTT assay (reference value: 86 %); assay type: functional; conditions: dose 0.5-2 nmol/L, at 0.5 to 2 nM
MGC-803 [12] = assay: Induction of cell cycle arrest in human MGC-803 cells assessed as accumulation of cells at G2/M phase at 2 nmol/L incubated for 24 hrs by RNase A/propidium iodide staining based flow cytometric analysis relative to control; assay type: functional
MGC-803 [13] = assay: Antitumor activity against human MGC-803 cells xenografted in female BALB/c-nu nude mouse assessed as reduction in Ki67 expression in tumor at 5 mg/kg, po administrated […] for 11 times and measured after 21 days by immunohistochemical analysis; assay type: functional, organism-based; conditions: time 21.0 day
HGC-27 [14] = assay: Induction of apoptosis in human HGC-27 cells assessed as late apoptotic cells at 1.5 nmol/L incubated for 48 hrs by Annexin V-FITC/propidium iodide staining based flow cytometry analysis (reference value: 3.70 %); assay type: functional
HGC-27 [15] = assay: Induction of apoptosis in human HGC-27 cells assessed as early apoptotic cells at 1.5 nmol/L incubated for 48 hrs by Annexin V-FITC/propidium iodide staining based flow cytometry analysis (reference value: 2.04 %); assay type: functional
HGC-27 [16] = assay: Antiproliferative activity against human HGC-27 cells assessed as survival rate at 2 nmol/L measured after 6 hrs by MTT assay relative to control; assay type: functional; conditions: read-out: Survival
MGC-803 [17] = assay: Induction of apoptosis in human MGC-803 cells assessed as early apoptotic cells at 1.0 nmol/L incubated for 48 hrs by Annexin V-FITC/propidium iodide staining based flow cytometry analysis (reference value: 0.83 %); assay type: functional
HGC-27 [18] = assay: Induction of apoptosis in human HGC-27 cells assessed as late apoptotic cells at 2.0 nmol/L incubated for 48 hrs by Annexin V-FITC/propidium iodide staining based flow cytometry analysis (reference value: 3.70 %); assay type: functional
MGC-803 [19] = assay: Induction of apoptosis in human MGC-803 cells assessed as cell rupture at 0.25 to 2.0 nmol/L incubated for 48 hrs by bright field microscopic analysis; assay type: functional, cell-based; conditions: dose 0.25-2 nmol/L
HGC-27 [20] = assay: Antiproliferative activity against human HGC-27 cells assessed as survival rate at 2 nmol/L measured after 48 hrs by MTT assay relative to control; assay type: functional; conditions: read-out: Survival
Tubulin (Homo sapiens) [21] = target: T1, Tubulin (Homo sapiens); assay: Disruption of microtubule network in human MGC-803 cells assessed as disruption of mitosis at 0.25 to 2.0 nmol/L incubated for 24 hrs by DAPI staining based fluorescence microscopic analysis; assay type: cell-based; conditions: dose 0.25-2 nmol/L
HGC-27 [22] = assay: Induction of apoptosis in human HGC-27 cells assessed as cell contraction at 0.25 to 2.0 nmol/L incubated for 48 hrs by bright field microscopic analysis; assay type: functional, cell-based; conditions: dose 0.25-2 nmol/L
HGC-27 [23] = assay: Antiproliferative activity against human HGC-27 cells assessed as reduction in cell viability at 0.25 to 2.0 nmol/L by MTT assay; assay type: functional, cell-based; conditions: dose 0.25-2 nmol/L, time 6-48 hrs
HGC-27 [24] = assay: Induction of apoptosis in human HGC-27 cells assessed as late apoptotic cells at 0.25 nmol/L incubated for 48 hrs by Annexin V-FITC/propidium iodide staining based flow cytometry analysis (reference value: 3.70 %); assay type: functional
NCI-N87 = assay: Antiproliferative activity against human NCI-N87 cells assessed as inhibition of cell proliferation incubated for 48 hrs by MTT assay; assay type: functional, cell-based; conditions: NCI-N87, 48 h
MDA-MB-231 = assay: Antiproliferative activity against human MDA-MB-231 cells assessed as inhibition of cell proliferation incubated for 48 hrs by MTT assay; assay type: functional, cell-based; conditions: MDA-MB-231, 48 h
MCF7 = assay: Antiproliferative activity against human MCF7 cells assessed as inhibition of cell proliferation incubated for 48 hrs by MTT assay; assay type: functional, cell-based; conditions: MCF7, 48 h
MGC-803 [25] = assay: Induction of apoptosis in human MGC-803 cells assessed as total apoptotic rate at 2 nmol/L incubated for 48 hrs by Annexin V-FITC/propidium iodide staining based flow cytometry analysis relative to control; assay type: functional
Tubulin = assay: Inhibition of tubulin (unknown origin) polymerization assessed as decrease in fluorescence intensity in presence of GTP by fluorescence microplate reader; assay type: protein-complex assay, Homo sapiens
HGC-27 [26] = assay: Induction of apoptosis in human HGC-27 cells assessed as early apoptotic cells at 1.0 nmol/L incubated for 48 hrs by Annexin V-FITC/propidium iodide staining based flow cytometry analysis (reference value: 2.04 %); assay type: functional
KYSE-450 = assay: Antiproliferative activity against human KYSE-450 cells assessed as inhibition of cell proliferation incubated for 48 hrs by MTT assay; assay type: functional, cell-based; conditions: KYSE-450, 48 h
HGC-27 [27] = assay: Anti-migratory activity against human HGC-27 cells assessed as reduction in wound healing area measured after 24 hrs by wound healing assay; assay type: functional, cell-based; conditions: dose 0.5-1 nmol/L

CN(c1ccc2c(ccn2C)c1)c1nc(N2CCCC2)nc2sccc12
Activity (MGC-803 [1]): 6.33% | Activity (MGC-803 [2]): 3.42% | IC50 at 48 h [3]: 31.1 nM | Activity (HGC-27 [4]): Dose-dependent-effect | Activity (MGC-803 [5]): Active | Activity (Tubulin (Homo sapiens) [6]): Active | Activity (MGC-803 [7]): Time-dependent-effect | Activity (MGC-803 [8]): Active | Activity (Tubulin (Homo sapiens) [9]): Active | Activity (MGC-803 [10]): Dose-dependent-effect | Activity (HGC-27 [11]): 38% | Activity (MGC-803 [12]): 28.5% | Activity (MGC-803 [13]): Active | Activity (HGC-27 [14]): 5.22% | Activity (HGC-27 [15]): 15.58% | viability at 0.002 µM (HGC-27 [16]): 83% | Activity (MGC-803 [17]): 16.83% | Activity (HGC-27 [18]): 5.64% | Activity (MGC-803 [19]): Active | viability at 0.002 µM (HGC-27 [20]): 48% | Activity (Tubulin (Homo sapiens) [21]): Active | Activity (HGC-27 [22]): Active | Activity (HGC-27 [23]): Time-dependent-effect | Activity (HGC-27 [24]): 3.14% | IC50 (NCI-N87): 2.14 nM | IC50 (MDA-MB-231): 2.58 nM | IC50 (MCF7): 1.85 nM | Activity (MGC-803 [25]): 63% | IC50 (Tubulin): 2510 nM | Activity (HGC-27 [26]): 11.52% | IC50 (KYSE-450): 3.16 nM | Activity (HGC-27 [27]): Dose-dependent-effect
